According to patent publication US8759328B2, “Once-a-week administration of 25-hydroxy vitamin D3 to sustain elevated steady-state pharmacokinetic blood concentration” (Wisconsin Alumni Research Foundation, priority 2008, dated 2014):

Tests used:
[1] = Serum 25-(OH)D3 (RIA) after 1×/month oral administration in rats with normal vitamin D status; format: in vivo, rat
From the text: FIG. 1 is a bar graph showing exemplary elevations of serum 25-(OH)D3 levels occurring after 1×/month oral administration of 25-(OH)D3 at 9 and 100 mcg/kgBW in rats with normal vitamin D status. The rats were male, Sprague-Dawley rats (9 weeks of age, n=15) received from a commercial supplier, and the animals were placed on a purified diet containing 0.47% calcium and allowed to acclimate for one week. After one week the animals were randomly assigned to 3 groups, bled (0 d), and then orally dosed 1× every 28 days with vehicle (5% ethanol in Neobee oil) or 25-(OH)D3 dissolved in ethanol and Neobee oil. Blood was again collected 4 hr, 24 hr, and 1, 2, 3 and 4 weeks after each single, oral dose was administered, and, serum 25-(OH)D3 concentrations were assessed using a commercially available RIA kit (DiaSorin of Stillwater, Minn.). FIG. 1 also contains data taken after 6 months of dosing.
FIG. 5 is a bar graph illustrating the increases in serum 25(OH)D3 occurring after 1×/monthly oral administration of 25(OH)D3 at 1000 and 3000 mcg/kg body weight in rats with normal vitamin D status. The rats were male, Sprague-Dawley rats (9 weeks of age, n=4-6 animals/group) received from a commercial supplier. […] Blood was collected at the times indicated in the graph, and serum 25(OH)D3 concentrations were assessed using a commercially available RIA kit (DiaSorin of Stillwater, Minn.).

[2] = Serum total calcium after 1×/month oral administration in rats with normal vitamin D status; format: in vivo, rat
From the text: FIG. 2 is a bar graph showing no change in serum calcium occurring after […] oral administration of 25-(OH)D3 in rats with normal vitamin D status. The rats were male, Sprague-Dawley rats (9 weeks of age, n=15) received from a commercial supplier. The animals were placed on a purified diet containing 0.47% calcium and allowed to acclimate for one week. After one week the animals were randomly assigned to 3 groups, bled (0 d), and then orally dosed 1× every […] with vehicle (5% ethanol in Neobee oil) or 25-(OH)D3 dissolved in ethanol and Neobee oil. Blood was again collected 4 hr, 24 h, and 1, 2, 3 and 4 weeks after each single, oral dose was administered, and total calcium concentrations were assessed in the serum using atomic absorption spectrometry. FIG. 2 also contains data taken after the 6th and 10th monthly dose.
The rats were male, Sprague-Dawley rats (9 weeks of age, n=4-6 animals/group) received from a commercial supplier. The animals were placed on a purified diet containing 0.47% calcium and allowed to acclimate for one week. […] Total calcium concentrations were assessed in the serum using atomic absorption spectrometry or a clinical analyzer (Pentra 400, Horiba ABX Diagnostics—France).

[3] = Serum 25-(OH)D3 (RIA) after 1×/month oral administration in vitamin D deficient rats; format: in vivo, rat
From the text: FIG. 3 is a bar graph showing exemplary elevations of serum 25-(OH)D3 levels occurring after 1×/month oral administration of 25-(OH)D3 at 1, 3, 9, 30 and 100 mcg/kgBW in vitamin D deficient rats. The rats were male, Sprague-Dawley rats (weanlings, n=30) received from a commercial supplier. The animals were placed in rooms that lacked light emissions in the UV range and were fed diets lacking any vitamin D, whereby at 10 weeks of age the animals were randomly assigned to 6 groups (n=5/group), bled (0 d), and then orally dosed 1× every 28 days with vehicle (5% ethanol in Neobee oil) or 25-(OH)D3 dissolved in ethanol and Neobee oil. Blood was again collected 4 hr, 24 hr, and 1, 2, 3 and 4 weeks after each single, oral dose was administered, and serum 25-(OH)D3 concentrations were assessed using a commercially available RIA kit (DiaSorin of Stillwater, Minn.). FIG. 3 includes data taken after the 6th and 10th monthly dose.
FIG. 7 is a bar graph illustrating the increases in serum 25(OH)D3 occurring after 1×/monthly oral administration of 25(OH)D3 at 1000 and 3000 mcg/kg body weight in vitamin D deficient rats. […] Blood was collected at the times indicated in the graph and serum 25(OH)D3 concentrations were assessed using a commercially available RIA kit (DiaSorin of Stillwater, Minn.).

[4] = Serum total calcium after 1×/month oral administration in vitamin D-deficient rats; format: in vivo, rat
From the text: FIG. 4 is a bar graph showing no increase in serum Ca concentration levels above the normal range occurring after exemplary 1×/month oral administration of 25-(OH)D3 in vitamin D-deficient rats. The rats were male, Sprague-Dawley rats (weanlings, n=30) received from a commercial supplier. The animals were placed in rooms that lacked light emissions in the UV range and fed diets lacking vitamin D. At 10 weeks of age, the rats were randomly assigned to 6 groups (n=5/group), bled (0 d) and then orally dosed 1× every 28 days with vehicle (5% ethanol in Neobee oil) or 25-(OH)D3 dissolved in ethanol and Neobee oil, whereby blood was again collected 4 hr, 24 hr, and 1, 2, 3 and 4 weeks after each single, oral dose was administered. Total calcium concentrations were assessed in the serum using absorption spectrometry. FIG. 4 includes data out to 10 months of dosing.
The rats were male, Sprague-Dawley rats (weanlings, n=4-6/group) received from a commercial supplier. […] Blood was collected at the times indicated in the graph and total calcium concentrations were assessed in the serum using atomic absorption spectrometry or a clinical analyzer (Pentra 400, Horiba ABX Diagnostics—France).

[5] = Serum 25(OH)D3 (RIA) after 1×/weekly oral administration in vitamin D deficient rats; format: in vivo, rat; details: FIG. 9, 1×/weekly oral, 100, 1000 and 3000 mcg/kg body weight
From the text: FIG. 9 is a bar graph illustrating the increases in serum 25(OH)D3 occurring after 1×/weekly oral administration of 25(OH)D3 at 100, 1000 and 3000 mcg/kg body weight in vitamin D deficient rats. The rats were male, Sprague-Dawley rats (weanlings, n=4-6/group) received from a commercial supplier. The animals were placed in rooms that lacked light emissions in the UV range. The animals were fed diets lacking any vitamin D, whereby at 10 weeks of age the animals were randomly assigned to 3 groups and then orally dosed 1× every 7 days with vehicle (5% ethanol in Neobee oil) or 25(OH)D3 dissolved in ethanol and Neobee oil. Blood was collected at the times indicated in the graph and serum 25(OH)D3 concentrations were assessed using a commercially available RIA kit (DiaSorin of Stillwater, Minn.).

[6] = Serum total calcium after 1×/weekly oral administration in vitamin D deficient rats; format: in vivo, rat; details: FIG. 10
From the text: The rats were male, Sprague-Dawley rats (weanlings, n=4-6/group) received from a commercial supplier. The animals were placed in rooms that lacked light emissions in the UV range. The animals were fed diets lacking any vitamin D. At 10 weeks of age the animals were randomly assigned to 3 groups, and then orally dosed 1× every 7 days with vehicle (5% ethanol in Neobee oil) or 25(OH)D3 dissolved in ethanol and Neobee oil. Blood was collected at the times indicated in the graph and total calcium concentrations were assessed in the serum using atomic absorption spectrometry or a clinical analyzer (Pentra 400, Horiba ABX Diagnostics—France).

Solubility of 25-(OH)D3 = format: physicochemical
From the text: 25-(OH)D3 can exist in its free form or as a monohydrate. 25-(OH)D3 monohydrate is crystalline.

[7] = cited from earlier work
[8] = rat, in vivo; cited from earlier work

C=C1CC[C@H](O)C/C1=C/C=C1\CCCC2(C)[C@@H]([C@H](C)CCCC(C)(C)O)CC[C@@H]12 (stereo partly drawn) [25-(OH)D3, 25-hydroxy-vitamin D3]
serum 25-(OH)D3 levels ([1]; FIG. 1, 1×/month oral, 9 and 100 mcg/kgBW, rats with normal vitamin D status, up to 6 months of dosing): values return to baseline 4 weeks after the dose is administered
serum 25(OH)D3 circulating levels ([1]; FIG. 5, 1×/monthly oral, 1000 and 3000 mcg/kg body weight, D-sufficient rats): circulating levels higher than normal
serum calcium (hypercalcemia) ([2]; FIG. 2, 1×/month oral, up to 10 months): do not cause hypercalcemia
serum calcium ([2]; FIG. 6, 1×/monthly oral, 1000 and 3000 mcg/kg body weight): no increase in serum calcium outside the normal range
serum 25-(OH)D3 levels ([3]; FIG. 3, 1×/month oral, 1, 3, 9, 30 and 100 mcg/kgBW, vitamin D deficient rats, up to 10th monthly dose): values return to baseline 4 weeks after the dose is administered
serum 25(OH)D3 circulating levels ([3]; FIG. 7, 1×/monthly oral, 1000 and 3000 mcg/kg body weight, D-deficient rats): circulating levels higher than normal
serum Ca concentration (hypercalcemia) ([4]; FIG. 4, 1×/month oral, vitamin D-deficient rats, up to 10 months): do not cause hypercalcemia
serum calcium ([4]; FIG. 8, 1×/monthly oral, 1000 and 3000 mcg/kg body weight, vitamin D deficient rats): no increase in serum calcium outside the normal range
blood levels of 25(OH)D3 [5]: above the normal range without the large fluctuations
serum calcium [6]: no increase in serum calcium outside the normal range
solubility (Solubility of 25-(OH)D3; organic solvents): soluble
solubility (Solubility of 25-(OH)D3; water): relatively insoluble
time to peak 25-(OH)D3 concentrations in the serum ([7]; administered orally): about 4 hours
lifetime in the body ([7]; human, in vivo): 25 to 32 days
fraction absorbed ([7]; orally administered, in man): 62-77%
half-life ([7]; orally administered): 12 to 23 days
25-(OH)D3 levels with risk of causing a mild vitamin D intoxication [8]: above 500 ng/ml
blood level concentration at which toxicity becomes a concern [8]: greater than 450 ng/ml
